Series [1] deals with Histone-lysine N-methyltransferase EZH2 (Homo sapiens, UniProt Q15910, Y641F). The series can be described thus: Inhibition of N-terminal FLAG-tagged recombinant full-length human EZH2 Y641F mutant in PRC2 complex expressed in baculovirus infected Sf9 cells using H3K27me0 biotin/SAM as substrate preincubated for 10 mins followed by substrate addition measured after 4 hrs by HTRF assay. Format: cell-based.

Series [2] has as its system KARPAS-422. The series can be described thus: Antiproliferative activity against human KARPAS-422 cells expressing EZH2 Y641N mutant assessed as inhibition of cell proliferation incubated for 6 days by CCK8 assay. Format: functional, cell-based. As to conditions: KARPAS-422, 144 h.
The test system of series [3] is Pfeiffer. The series can be described thus: Antiproliferative activity against human Pfeiffer cells expressing EZH2 […] mutant assessed as inhibition of cell proliferation incubated for 6 days by CCK8 assay. Type of series: functional, cell-based. As to conditions: 144 h.
In series [4] the test system is Pfeiffer. Description: Downregulation of H3K27me3 level in human Pfeiffer cells at 1 uM incubated for 96 hrs followed by compound washout measured after 48 hrs by Western blot analysis. Format: functional, cell-based. As to conditions: time 144.0 hrs.
Series [5] can be described thus: Antiproliferative activity against human WILL-1 cells expressing wild-type EZH2 assessed as inhibition of cell proliferation incubated for 6 days by CCK8 assay. Format: functional, cell-based. Particulars: WILL-1, 144 h.
Series [6] deals with Pfeiffer. The series can be described thus: Antiproliferative activity against human Pfeiffer cells expressing EZH2 mutant assessed as inhibition of cell proliferation incubated for 6 days by CCK8 assay. Format: functional, cell-based. Particulars: time 6.0 day.
In series [7] the test system is KARPAS-422. The series can be described thus: Antiproliferative activity against human KARPAS-422 cells expressing EZH2 mutant assessed as inhibition of cell proliferation incubated for 6 days by CCK8 assay. Format: functional, cell-based. As to conditions: time 6.0 day.
The next series relates to RL. The series can be described thus: Antiproliferative activity against human RL cells expressing EZH2 mutant assessed as inhibition of cell proliferation incubated for 6 days by CCK8 assay. Type of series: functional, cell-based.
A further series concerns SU-DHL-2. Description: Antiproliferative activity against human SUDHL2 cells expressing EZH2 mutant assessed as inhibition of cell proliferation incubated for 6 days by CCK8 assay. Type of series: functional, cell-based. As to conditions: SU-DHL-2, 144 h.
The test system of a further series is SU-DHL10. Description: Antiproliferative activity against human SU-DHL-10 cells expressing EZH2 mutant assessed as inhibition of cell proliferation incubated for 6 days by CCK8 assay. Type of series: functional, cell-based. As to conditions: time 6.0 day.
The subject of another series is Karpas-1106P. The series can be described thus: Antiproliferative activity against human KARPAS-1106P cells expressing wild-type EZH2 assessed as inhibition of cell proliferation incubated for 6 days by CCK8 assay. Format: functional, cell-based.
Another series deals with DB. The series can be described thus: Antiproliferative activity against human DB cells expressing wild-type EZH2 assessed as inhibition of cell proliferation incubated for 6 days by CCK8 assay. Type of series: functional, cell-based. As to conditions: 144 h.
Another series relates to WSUDLCL2. Description: Antiproliferative activity against human WSUDLCL2 cells expressing wild-type EZH2 assessed as inhibition of cell proliferation incubated for 6 days by CCK8 assay. Format: functional, cell-based. As to conditions: WSUDLCL2, 144 h.
A further series deals with U2932. Description: Antiproliferative activity against human U2932 cells expressing wild-type EZH2 assessed as inhibition of cell proliferation incubated for 6 days by CCK8 assay. Type of series: functional, cell-based. Particulars: U2932, 144 h.
A further series has as its system HT. Description: Antiproliferative activity against human HT cells expressing wild-type EZH2 assessed as inhibition of cell proliferation incubated for 6 days by CCK8 assay. Format: functional, cell-based. Particulars: 144 h.
The subject of another series is OPM-2. The series can be described thus: Antiproliferative activity against human OPM-2 cells expressing wild-type EZH2 assessed as inhibition of cell proliferation incubated for 6 days by CCK8 assay. Type of series: functional, cell-based. Particulars: OPM-2, 144 h.
Series [8] can be described thus: Metabolic stability in human liver microsomes assessed as half life preincubated for 10 mins followed by NADPH addition measured upto 60 mins by LC-MS/MS analysis. Type of series: ADME, Microsome. As to conditions: time < 70 min.
Series [9] can be described thus: Apparent permeability in human Caco-2 cells at 20 uM measured for 35 to 95 mins by LC-MS/MS analysis. Format: ADME, cell-based. Particulars: time 35-95 min.

17 compounds from ChEMBL document CHEMBL5338788, “Discovery of a New-Generation S-Adenosylmethionine-Noncompetitive Covalent Inhibitor Targeting the Lysine Methyltransferase Enhancer of Zeste Homologue 2” (J Med Chem, 2023) can be followed below.

The source made the active and inactive calls. The rule behind the calls is not given here.

Chain of Histone-lysine N-methyltransferase EZH2 (Q15910 whole entry Y641F): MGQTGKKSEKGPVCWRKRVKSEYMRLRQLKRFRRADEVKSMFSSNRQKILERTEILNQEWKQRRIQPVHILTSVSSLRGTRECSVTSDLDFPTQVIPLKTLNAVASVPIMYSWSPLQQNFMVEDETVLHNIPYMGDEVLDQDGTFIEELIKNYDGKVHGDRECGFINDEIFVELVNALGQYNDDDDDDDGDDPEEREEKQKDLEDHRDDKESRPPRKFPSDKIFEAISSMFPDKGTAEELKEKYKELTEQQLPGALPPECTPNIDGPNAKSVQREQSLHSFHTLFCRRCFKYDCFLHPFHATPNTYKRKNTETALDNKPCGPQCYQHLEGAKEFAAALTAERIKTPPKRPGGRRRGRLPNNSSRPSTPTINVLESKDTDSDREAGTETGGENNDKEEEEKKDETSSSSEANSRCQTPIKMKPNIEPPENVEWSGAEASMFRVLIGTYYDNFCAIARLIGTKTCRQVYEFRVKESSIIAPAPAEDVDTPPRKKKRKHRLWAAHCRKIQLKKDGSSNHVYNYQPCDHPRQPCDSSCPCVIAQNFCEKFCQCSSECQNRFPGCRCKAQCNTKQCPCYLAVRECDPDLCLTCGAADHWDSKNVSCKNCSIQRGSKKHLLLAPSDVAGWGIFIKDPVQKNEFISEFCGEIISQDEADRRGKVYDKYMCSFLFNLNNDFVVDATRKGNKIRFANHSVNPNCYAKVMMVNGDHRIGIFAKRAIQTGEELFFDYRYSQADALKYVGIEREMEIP

For `C=CC(=O)NCc1cc(C(=O)NCc2c(CCC)cc(C)[nH]c2=O)c(C)c(N(CC)C2CCOCC2)c1`, the IC50 was 4 nM in series [1], over 3000 nM in the series on KARPAS-422 [2] and 1350 nM with Pfeiffer [3].
In the case of `CCC(=O)NCc1cc(C(=O)NCc2c(SC)cc(C)[nH]c2=O)c(C)c(N(CC)C2CCOCC2)c1`, the IC50 was 134 nM in series [1]; 708 nM in the series with KARPAS-422 [2]; 147 nM in the series on Pfeiffer [3]; over 3000 nM in [5]; over 3000 nM in the series with RL (144 h); over 3000 nM in the series with SU-DHL-2. In addition, the IC50 with Karpas-1106P (144 h), with DB, in the series on WSUDLCL2, in the series with U2932, in the series on HT and with OPM-2 was over 3000 nM throughout. In the series with Pfeiffer [4], the result was inactive. In addition, the inhibition entry with Pfeiffer [6], in the series with KARPAS-422 [7] and in the series with SU-DHL10 was “Active” each time.
As for `C=CC(=O)NCc1cc(C(=O)NCc2c(C)cc(C)[nH]c2=O)c(C)c(N(CC)C2CCOCC2)c1`, the IC50 in series [1] was 39 nM; with KARPAS-422 [2], 542 nM; in the series on Pfeiffer [3], 194 nM. The half-life in series [8] stood at 24 min.
`CCN(c1cc(NC(=O)/C=C/CN2CCOCC2)cc(C(=O)NCc2c(C)cc(C)[nH]c2=O)c1C)C1CCOCC1`: the IC50 in [1] is 21 nM.
For `C=CC(=O)N(C)c1cc(C(=O)NCc2c(C)cc(C)[nH]c2=O)c(C)c(N(CC)C2CCOCC2)c1`, the IC50 in series [1] amounted to 35 nM; in the series on KARPAS-422 [2], 587 nM; with Pfeiffer [3], 195 nM. Further, in series [8], the half-life was 12.7 min. For the same compound, the Papp at 20 µM in series [9] was determined as 0.054 ×10⁻⁶ cm/s.
Consider `CCN(c1cc(NC(=O)/C=C/CN(C)C)cc(C(=O)NCc2c(C)cc(C)[nH]c2=O)c1C)C1CCOCC1`, for which the IC50 in [1] stood at 36 nM.
Take `CCC(=O)N(C)c1cc(C(=O)NCc2c(C)cc(C)[nH]c2=O)c(C)c(N(CC)C2CCOCC2)c1`: the IC50 was 50 nM in series [1], over 3000 nM in the series on KARPAS-422 [2] and 2530 nM with Pfeiffer [3].
Consider `C=C(C)C(=O)Nc1cc(C(=O)NCc2c(C)cc(C)[nH]c2=O)c(C)c(N(CC)C2CCOCC2)c1`, for which, in series [1], the IC50 was found to be 38 nM.
Consider `C=CC(=O)NCc1cc(C(=O)NCc2c(OC)cc(C)[nH]c2=O)c(C)c(N(CC)C2CCOCC2)c1`, for which the IC50 in series [1] amounted to 9 nM; with KARPAS-422 [2], 1440 nM; with Pfeiffer [3], 314 nM. The half-life in [8] worked out at 35.3 min.
Take `CC[C@H](C)n1cc(C)c2c(C(=O)NCc3c(C)cc(C)[nH]c3=O)cc(-c3ccc(N4CCNCC4)nc3)cc21`: the outcome with Pfeiffer [4] was inactive.
With `CCN(c1cc(-c2ccc(CN3CCOCC3)cc2)cc(C(=O)NCc2c(C)cc(C)[nH]c2=O)c1C)C1CCOCC1` [TAZEMETOSTAT], the IC50 with KARPAS-422 [2] was 294 nM; in the series with Pfeiffer [3] it was 34 nM; in series [5], over 3000 nM; with SU-DHL-2 it was over 3000 nM; in the series on DB it was over 3000 nM; in the series on WSUDLCL2, over 3000 nM. The IC50 in the series on U2932, in the series with HT and in the series with OPM-2 was over 3000 nM throughout. In addition, the half-life in series [8] worked out at 20.2 min. The Papp at 20 µM in series [9] was found to be 1.06 ×10⁻⁶ cm/s. In the series with Pfeiffer [4], the outcome was inactive. In addition, the inhibition entry in the series with Pfeiffer [6], with KARPAS-422 [7], with RL (time 6.0 day), with SU-DHL10 and in the series with Karpas-1106P (time 6.0 day) was “Active” throughout.
In the case of `C/C=C/C(=O)Nc1cc(C(=O)NCc2c(C)cc(C)[nH]c2=O)c(C)c(N(CC)C2CCOCC2)c1`, the IC50 in [1] worked out at 21 nM.
For the compound `C=CS(=O)(=O)Nc1cc(C(=O)NCc2c(C)cc(C)[nH]c2=O)c(C)c(N(CC)C2CCOCC2)c1`, the IC50 in [1] is 173 nM.
As to `CCC(=O)NCc1cc(C(=O)NCc2c(C)cc(C)[nH]c2=O)c(C)c(N(CC)C2CCOCC2)c1`, the IC50 in series [1] is 137 nM; in the series with KARPAS-422 [2] it was over 3000 nM; in the series with Pfeiffer [3], over 3000 nM.
On to `CCC(=O)Nc1cc(C(=O)NCc2c(C)cc(C)[nH]c2=O)c(C)c(N(CC)C2CCOCC2)c1`, for which the results for the IC50 (in [1]; in the series on KARPAS-422 [2]; in the series on Pfeiffer [3]) were 38 nM, over 3000 nM and 1950 nM, respectively.
As to `C=CC(=O)Nc1cc(C(=O)NCc2c(C)cc(C)[nH]c2=O)c(C)c(N(CC)C2CCOCC2)c1`, the IC50 in series [1] was 10 nM; in the series on KARPAS-422 [2], over 3000 nM; with Pfeiffer [3], 974 nM. Moreover, the half-life in series [8] stood at 9.4 min. In addition, in [9], the Papp at 20 µM came to 0.045 ×10⁻⁶ cm/s.
As for `CC#CC(=O)Nc1cc(C(=O)NCc2c(C)cc(C)[nH]c2=O)c(C)c(N(CC)C2CCOCC2)c1`, the IC50 in series [1] turned out to be 11 nM.
